US20070224200A1, “Gm3 Synthase as a Therapeutic Target in Microvascular Complications of Diabetes” (priority 2004, published 2007)

Assays:
pericytes (BRP) [1] = experiment: AGE effect on proliferation of pericytes (cell count, total proteins); type: cell-based, bovine; details: 3 μM AGE, 7 days
Text: Bovine retinal pericytes (BRP) were isolated from bovine retinal micro-vessels as described previously (Lecomte et al., 1996). Briefly, the retinas were obtained by dissection under sterile conditions from enucleated bovine eyes obtained from a local abattoir. After the contaminating pigmented epithelial cells of the retina had been removed, the retinas (2 per culture dish) were sliced into small pieces and homogenised in a Dounce homogeniser in a Hanks balanced saline solution (Ca^2+/Mg^2+-free oxygenated HBSS supplemented with Hepes 10 mM, pH 7.4, antibiotics 1%, bovine serum albumin (BSA, Sigma, Saint-Quentin Fallavier, France) 0.5%). […] The BRP cultures were 100% pure, as characterised by their polygonal irregular morphology with pseudopodia and their growth into non-apposed cells, and as evaluated by positive labelling for both α1-actin and a specific glycolipid antigen (3G5 antibody) and by negative labelling for the von Willebrand factor expressed in the endothelial cells (Lecomte et al., 1996). […]
(§1) At the end of the treatment, the cells were harvested with trypsin and the cell residues were washed twice with a phosphate buffered saline solution (iced PBS) (Sigma). For each sample, one aliquot of cells was counted using a haemocytometer in order to determine the number of cells. […]

[2] = test system: renal mesangial cells (RMC); experiment: AGE effect on proliferation of renal mesangial cells (cell count, total proteins); type: cell-based, rat; details: 3 μM AGE, 4 days
Text: Rat renal mesangial cells (RMC) were obtained from purified glomeruli of young male Wistar rats (Charles River, l'Arbresle, France). Briefly, cortex fragments were isolated from rat kidneys freshly removed under sterile conditions. Small pieces were mechanically forced through a 230 μm mesh with HBSS buffer. The glomeruli, passed through this mesh, were then forced through a 73.7 μm mesh. Finally, they were placed on a 70 μm mesh and placed in 6 cm dishes covered with fibronectin (4 dishes for 2 renal glomeruli) in DMEM supplemented with 20% of foetal bovine serum, 1% of glutamine and 1% of penicillin/streptomycin. After the attachment period, the excrescence of RMC from glomeruli occurred after three weeks and the cells were then cultivated to the fifth passage in order to remove the residual epithelial and endothelial cells. The RMC are characterised by morphological criteria (star shape, wick shape when they are confluent) and by positive labelling with vimentin, smooth muscle α-actin and Thy-1 antigen. […]
as §1

[3] = test system: gangliosides in pericytes (BRP); experiment: Ganglioside profile in pericytes treated with AGE (HPTLC); type: cell-based, bovine; details: 3 μM AGE
Procedure: (§2) The AGE and the BSA control (final concentration of 3 μM) were added to the culture medium 24 hours after inoculation. Each cell type was treated for one passage (about 7 days for the BRP and 4 days for the RMC). The culture medium was replaced with a fresh medium every two days.
(§3) For metabolic labelling of the gangliosides, 0.2 μCi/ml or 1 μCi/ml of [^14C(U)]-D-galactose (329.5 mCi/mmol) (PerkinElmer Life Sciences, Boston, Mass.) was added to the culture medium overnight for the labelling experiments with a high specific activity (GM2 and GM1 measuring experiment). The cells (5-8×10^5 pericytes or 12-20×10^5 mesangial cells) were then harvested by trypsinisation and washed three times in PBS. The gangliosides were extracted from the cell residues by the method described by Bouchon et al. (Bouchon et al., 1990), modified by Natalizio et al. (Natalizio et al., 2002). Briefly, the cell residues were dispersed in 2 ml of chloroform (C)/methanol (M) (1:1, v/v), mixed vigorously and extracted overnight at 4° C. After centrifugation, the residues were extracted twice with 2 ml of the same solvent. The pooled extracts of total lipids were dried by evaporation and separated with the aid of a 1 mM C/M/PBS solution (10:10:7, v/v/v). The upper phases, containing the gangliosides, were then desalted on a C18 silica gel column (Waters Corporation, Milford, Mass.) and analysed by HPTLC (Merck, Darnstadt, Germany). The plates were developed in 0.2% C/M/CaCl2 (55:45:10, v/v/v). The gangliosides were visualised by autoradiography using a phosphorus screen and a Storm 820 (Molecular Dynamics, Amersham Pharmacia Biotech, Piscataway, United States) and by labelling with resorcinol (specific stain for gangliosides: resorcinol 0.3% (Sigma), CuSO4 0.03%, HCl 30%) using an Image Master VDS-CL (Amersham Pharmacia Biotech). Quantification was performed using an Image Quant (Molecular Dynamics). As GT1b was absent from the ganglioside profiles of both the BRP and the RMC, it was added to the samples as an internal standard prior to lipid extraction.

[4] = test system: gangliosides in mesangial cells (RMC); experiment: Ganglioside profile in mesangial cells treated with AGE (HPTLC); type: cell-based, rat; details: 3 μM AGE, resorcinol staining
Procedure: as §2, §3

GM3 synthase [5] = experiment: GM3 synthase activity in homogenates of pericytes treated with AGE; type: cell-based, bovine; details: 3 μM AGE, 7 days, vs BSA control
Procedure: as §2
(§4) At the end of the treatment, the cells were washed with PBS, incubated for 20 minutes at 4° C. in 50 μl of lysis buffer (20 mM sodium cacodylate, pH 6.6 (Sigma), 0.2% of Triton X-100, 1 mM EDTA, 10 μl/ml of protease inhibitors, Calbiochem, La Jolla, Calif., United States) and then collected by scraping. Four dishes of BRP (about 2-3×10^6 cells) and three dishes of RMC (about 3-6×10^6 cells) were pooled. The cell lysates were centrifuged at 10,000 g for 5 minutes and the proteins in the supernatants were used to measure the GM3 synthase activity. The glomerular residues were mechanically homogenised with a syringe in 25 mM Hepes containing 1 mM EDTA and 10 μl/ml of protease inhibitors. The homogenates were then centrifuged at 1000 g for 2 minutes and the postnuclear supernatant was used to measure the GM3 synthase activity. Equivalent amounts of proteins for each sample (about 500 μg for the cells and 100 μg for the glomeruli) were used to perform the test. […]

GM3 synthase [6] = experiment: GM3 synthase activity in homogenates of mesangial cells treated with AGE; type: cell-based, rat; details: 3 μM AGE, 4 days, vs BSA control
Procedure: as §2, §4

GM3 synthase [7] = experiment: GM3 synthase activity in RMC transfected with GM3 synthase siRNA; type: cell-based, rat
Procedure: as §4, with “inhibitors.” for “inhibitors. The homogenates were then centrifuged at 1000 g for 2 minutes and the postnuclear supernatant was used to measure the GM3 synthase activity. Equivalent amounts of proteins for each sample (about 500 μg for the cells and 100 μg for the glomeruli) were used to perform the test.”
To block the GM3 synthase activity, RMC were cultivated in 6-well culture plates up to 30% confluence and then transfected with an interfering RNA (siRNA) specific for GM3 synthase, which was designed against a rat cDNA sequence (Ambion, Huntingdon, UK) using an Oligofectamine reagent (Invitrogen Corporation). […] After 72 h of transfection, the GM3 synthase activity was measured on homogenates of transfected cells. The proliferation was then evaluated on the cells transfected with the siRNA. […] The cells were then washed twice with PBS and lysed in a Ripa lysis buffer and the proteins were measured in order to evaluate the cell proliferation.

RMC = experiment: Proliferation of siRNA-transfected RMC treated with AGE; type: cell-based, rat; details: 400 nM siRNA, then 3 μM AGE 3 days, total proteins
Procedure: To block the GM3 synthase activity, RMC were cultivated in 6-well culture plates up to 30% confluence and then transfected with an interfering RNA (siRNA) specific for GM3 synthase, which was designed against a rat cDNA sequence (Ambion, Huntingdon, UK) using an Oligofectamine reagent (Invitrogen Corporation). The GM3 synthase antisense sequence used was GGGUUAUUCUGAACAUGUUtt (SEQ ID No: 5). In preliminary experiments, a dose-response study was carried out by transfecting the cells with increasing concentrations of siRNA (0-800 nM). After 72 h of transfection, the GM3 synthase activity was measured on homogenates of transfected cells. The proliferation was then evaluated on the cells transfected with the siRNA. For this purpose, 24 hours after transfection with 400 nM siRNA, the cells were treated with 3 μM BSA control or AGE (3 days). The cells were then washed twice with PBS and lysed in a Ripa lysis buffer and the proteins were measured in order to evaluate the cell proliferation.

pericytes (BRP) [8] = experiment: Treatment with exogenous gangliosides, proliferation of pericytes; type: cell-based, bovine; details: 50 μM, 7 days, total proteins
Procedure: (§5) To evaluate the effect of exogenous gangliosides on the proliferation of BRP and RMC, the cells were cultivated in 96-well plates. Exogenous glycolipids GM3, GM2, GM1 and GD1a, glucosylceramide and lactosylceramide (Matreya) were added to the complete culture medium in a final concentration of 50 μM in the form of complexes with BSA in a 1:1 ratio in DMEM/10 mM Hepes, pH 7.4. At the end of the treatment, the cells were washed twice with PBS and lysed for 30 minutes at 37° C. in 50 μl of a Ripa lysis buffer (PBS 10 mM, NP40 1% (Pierce, Perbio Science, Brebières, France), sodium deoxycholate 0.5%, SDS 0.1%, protease inhibitors 10 μl/ml). As the number of cells in our experiments was correlated with the total protein concentrations (cf. FIG. 1), the total proteins were measured using the BCA protein test (Pierce) in order to evaluate the cell proliferation.

mesangial cells (RMC) = experiment: Treatment with exogenous gangliosides, proliferation of mesangial cells; type: cell-based, rat; details: 50 μM, 4 days, total proteins
Procedure: as §5

[9] = pericytes, resorcinol staining, vs BSA control

“AGE: prepared by incubating bovine serum albumin with 100 mM methylglyoxal at 37° C. for 50 hours” was tested, and the “reduction of the number of pericytes” value (pericytes (BRP) [1]; cell count, vs BSA control) was 33%, the total proteins (pericytes (BRP) [1]; pericytes) was “decreased in correlation with the number of cells” and the “reduction of the number of mesangial cells” value ([2]; cell count, vs BSA control) was 40%. For the same substance, the total proteins ([2]; mesangial cells) was “decreased in correlation with the number of cells”, the “increase in GM2” value ([3]; BRP, [14C]-D-galactose labelling, autoradiography) was 55% and the “increase in series a ganglioside GM1” value [3, 9] was “about 40%”. For the same substance, the “increase in series a ganglioside GM3” value [3, 9] was “about 40%”, the “reduction of series b ganglioside GD3” value [3, 9] was 24% and the GD1a levels [4] was “not affected”. The “increase in GM3” value ([4]; vs BSA control) was 33%, the “reduction of GD3” value ([4]; vs BSA control) was 30% and the “increase of GM3 synthase activity (factor)” value (GM3 synthase [5]) was “about 1.8”. For the same substance, the “increase of GM3 synthase activity (factor)” value (GM3 synthase [6]) was “about 1.5”.
In the case of “GGGUUAUUCUGAACAUGUUtt (guide GGGUUAUUCUGAACAUGUUTT; chemistry not given here) [GM3 synthase siRNA]”, the “inhibition of GM3 synthase activity” value (GM3 synthase [7]; RMC transfected with siRNA) is reported as 50%, the “inhibition of GM3 synthase activity (in words)” value (GM3 synthase [7]; RMC, preliminary experiments, siRNA 0-800 nM, 72 h) is reported as “effectively inhibited” and the “effects of AGE on the proliferation of the RMC” value (RMC) is reported as “partially inhibited”.
In the case of glucosylceramide, the “effect on proliferation of pericytes (in words)” value (from here on “effect … of pericytes (in words)”) (pericytes (BRP) [8]) is reported as “no effect” and the “effect on proliferation of mesangial cells (in words)” value (mesangial cells (RMC)) is reported as “no effect”.
lactosylceramide was tested, and the “effect … of pericytes (in words)” value (pericytes (BRP) [8]) was “no effect” and the “effect on proliferation of mesangial cells (in words)” value (mesangial cells (RMC)) was “no effect”.
“α-N-acetyl-neuraminyl-2,3-β-D-galactosyl-1,4-β-D-glucosylceramide [GM3]” was tested, and the “effect … of pericytes (in words)” value (pericytes (BRP) [8]) was “weakly inhibited” and the “effect on proliferation of mesangial cells (in words)” value (mesangial cells (RMC)) was “no significant effect”.
